Experimental data: PubChem BioAssay AID624265 (Broad Institute, 2012)
The source made the active and inactive calls.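 How the source made its calls: active means at a dose no more than twice the top valid tested dose, the fitted curve drops below -35% activity change; inactive means the rest, rising-direction activity included.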

Experiments:
[1] = system: NIH3T3 viability, CellTiter-Glo ATP luminescence; assay: cytotoxicity in NIH3T3 fibroblasts, dose response, cytotoxicity control for HSP40 inhibitor project, cell-based, CellTiter-Glo luminescence, cherry-pick, set 2 (AID 624265);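 further: cells exposed to compound for 48 hours before the ATP read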;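 on activity change, negative = toxicity: 0% = median neutral control signal and -100% = no luminescence left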
[2] = as above; settings: NIH3T3 viability, CellTiter-Glo ATP luminescence; at 50 µM (top of the series)

Compound | AC35 [1] | activity change, negative = toxicity [2]
CC(C)N1CCN(c2ccc(OC[C@H]3CO[C@](Cn4cncn4)(c4ccc(Cl)cc4Cl)O3)cc2)CC1 | 30.8 µM | –
CCC(=O)NC(c1ccco1)c1cc(Cl)c2cccnc2c1O (stereo unspecified) | 49.1 µM | –
Oc1cccc2ccc(Nc3ccccn3)nc12 | 14.2 µM | –
Cc1c(Cc2ccccc2)c(NCCN(C)C)n2c(nc3ccccc32)c1C#N | 16.3 µM | –
CN(Cc1ccc(Cl)s1)C(=O)CCl | 25 µM | –
CC1CCN(c2nc(-c3ccncc3)nc3ccccc23)CC1 | 49.6 µM | –
Oc1ccc(/C=N/Nc2ccc(C(F)(F)F)cn2)c(O)c1 | 43.9 µM | –
CCOC(=O)c1cc2c(=Cc3ccc(N(C)C)cc3)c3ccccc3n2[n+]1C | 29 µM | –
CCCCOC(=O)/C=C/c1ccc(OC(=O)OC)c(OC(=O)OC)c1 | 50.7 µM | –
Cc1[nH]n(-c2ccccc2)c(=O)c1/C=N/Nc1nncc(-c2ccccc2)n1 | 19.5 µM | –
C=C1C(=O)C23CCC4C(C)(C(=O)OC)CCCC4(C)C2CCC1(O)C3 (stereo unspecified) | 10.1 µM | –
O=CC1=C(c2ccccc2)Oc2ccccc2O1 | 47.5 µM | –
CNc1ccc2oc(C[C@H]3O[C@@]4(CC[C@H]3C)O[C@H]([C@H](C)C(=O)c3ccc[nH]3)[C@H](C)C[C@H]4C)nc2c1C(=O)O | 11.1 µM | –
Cc1oc2c(c1C(=O)c1ccccc1)C(=O)C(=O)c1ccccc1-2 | 8.43 µM | –
COc1ccc(O)c(C(=O)CC(=O)c2ccc(F)cc2)c1 | 52.3 µM | –
O=C(Nc1nc(-c2ccccn2)cs1)c1ccc(Br)s1 | 27.1 µM | –
O=[N+]([O-])c1ccc(Sc2cccc[n+]2[O-])c2nonc12 | 4.46 µM | –
CCc1cc(SC#N)cc(C)c1NC(=O)CCl | 49.6 µM | –
CN(C)c1ccc(C=c2c3ccccc3n3c2c2c([n+]3C)CCCC2)cc1 | 33.3 µM | –
CC1=CC(=O)C=C(C)C1=NOS(=O)(=O)c1ccccc1 | 27.6 µM | –
Oc1c(C(Nc2cccc(C(F)(F)F)c2)c2ccncc2)ccc2cccnc12 (stereo unspecified) | 48.9 µM | –
Cc1cccc2sc(NNC(=O)c3ccc(S(=O)(=O)N4CCCC(C)C4)cc3)nc12 (stereo unspecified) | 40.5 µM | –

Compound | AC35 [1] | activity change, negative = toxicity [2]
CC[n+]1c(/C=C/C=C/c2ccc(N(C)C)cc2)sc2ccccc21 | 24.4 µM | –
COc1cccc(/C=N/Nc2ncnc(Cl)c2N)c1O | 47.2 µM | –
Nc1cc2nc3ccccc3oc-2cc1=O | 28 µM | –
Cc1ccc(Cl)cc1NC1=C/C(=N\S(=O)(=O)c2cccs2)c2ccccc2C1=O | 8.07 µM | –
Cc1ccc(S(=O)(=O)Nc2ccc(O)c3cccnc23)cc1 | 33 µM | –
CN(C)c1nc(-c2ccccn2)nnc1-c1ccccc1 | 43.5 µM | –
Cc1ccc(NC2(c3nnnn3-c3c(C)cccc3C)CCCCC2)cc1 | – | 0.981% (inactive)
COc1ccc(/C=N/Nc2cc(C)nc(-n3nc(C)cc3C)n2)cc1 | – | -9.51% (inactive)
CC12CC3(C)CC(C)(C1)CC(NC(=O)N1CCCC1)(C2)C3 | – | 17.5% (inactive)
Cc1ccc(NC(=S)c2nc3ccccc3[nH]2)c(C)c1 | – | -2.47% (inactive)
Cc1ccc2oc(-c3ccccc3)c(C(=O)O)c(=O)c2c1 | – | -13.9% (inactive)
O=C(c1ccccc1)N1C(=O)C(c2ccccc2)Oc2ccccc21 (stereo unspecified) | – | 5.11% (inactive)
Cc1ccc(-n2nnnc2SCC(=O)N2CCc3ccccc3C2)c(C)c1 | – | 3.85% (inactive)
CC12CCC(O)CC1=CCC1C2CCC2(C)C3=NN=CC3CC12 (stereo unspecified) | – | 6.4% (inactive)
Cc1c(C2(O)CCCCC2)[nH]c2ccc(C(F)(F)F)cc12 | – | -6.56% (inactive)
C=CCc1ccc(O)c(-c2ccc(O)c(CC=C)c2)c1 | – | 9.45% (inactive)
Cc1nc2ccc(C(=O)NCc3ccc4c(c3)OCO4)cc2s1 | – | 1.22% (inactive)
O=c1cc(CSc2ccc(Cl)cc2)nc(-c2ccccn2)[nH]1 | – | 20.7% (inactive)
O=C(Nc1nnc(SCc2ccc(F)cc2)s1)c1ccccn1 | – | 5.25% (inactive)
COc1cccc(/C=N/Nc2ncnc3scc(-c4ccccc4)c23)c1O | 48.4 µM | –
Oc1ccc(N=Nc2ccc3c(c2)OCCO3)c2cccnc12 | 50.2 µM | –
O=C1Nc2c(Br)cccc2C1=O | – | -1.42% (inactive)

Compound | AC35 [1] | activity change, negative = toxicity [2]
COc1ccccc1C1CCN(C(=O)c2ccc(Cl)cc2)CC1 | – | 6.31% (inactive)
CCCCNc1c(-c2cccc(Sc3ccc(OC)cc3)c2)nc2ccccn12 | 39.2 µM | –
CC(=O)C1=C(c2ccc(Br)cc2)C(=O)c2ccccc2C1=O | 26.2 µM | –
CC1(C(=O)OCC(=O)Nc2ccc3ccccc3c2)CC1(Cl)Cl (stereo unspecified) | – | 0.196% (inactive)
CCCCNc1c(-c2cccc(-c3ccc(OC)cc3)c2)nc2ccc(C)cn12 | 22.7 µM | –
CCCC(C)Sc1nc2c([nH]1)c(=S)n(C)c(=O)n2C (stereo unspecified) | – | 0.769% (inactive)
O=C1c2cc(F)ccc2-n2c1nc1ccccc1c2=O | 50 µM | –
CC(=O)NC(c1cccc([N+](=O)[O-])c1)c1ccc2cccnc2c1O (stereo unspecified) | – | -27.2% (inactive)
CCCCc1ccc(-n2c(Cc3cccs3)n[nH]c2=S)cc1 | – | -7.72% (inactive)
O=c1c2ccccc2nc(-c2cccc(Cl)c2)n1O | – | 4.83% (inactive)
Nc1nc(-c2ccccc2)c(-c2ccc([N+](=O)[O-])cc2)s1 | – | 15.2% (inactive)
Cc1cc(C)c(C(=O)CC(=O)c2cccnc2)c(C)c1 | – | 8.73% (inactive)
CCCOc1ccc2ccccc2c1/C=C1\SC(=O)NC1=O | – | 6.17% (inactive)
Cc1ccc(NC(=O)CN(C)C(=O)c2cccnc2Nc2cccc(C(F)(F)F)c2)cc1 | – | -0.151% (inactive)
O=C(Nc1ccc(Cl)cc1C(=O)Nc1ccc(Br)cn1)c1ccco1 | – | -5.93% (inactive)
Cc1ccc(O)c(C2=NNC(c3ccc(Cl)cc3)C2)c1 (stereo unspecified) | – | 0.122% (inactive)
Cc1ccoc1C(=O)Nc1cccc(Oc2ccccc2)c1 | – | 9.85% (inactive)
Clc1ccccc1C(c1ccccc1)(c1ccccc1)n1ccnc1 | – | 10.3% (inactive)
CNc1cc(CSC)nc(SCc2ccc(Cl)cc2Cl)n1 | – | 18.6% (inactive)
CC(=O)NC(c1ccc(C)cc1)c1cc([N+](=O)[O-])c2cccnc2c1O (stereo unspecified) | – | -0.602% (inactive)
CCc1ccc(S(=O)(=O)N(C(=O)c2ccncc2)c2ccc(OC(=O)c3ccncc3)cc2)cc1 | – | 12.1% (inactive)
CC(C)N1CCN(c2ccc(OCC3COC(Cn4cncn4)(c4ccc(Cl)cc4Cl)O3)cc2)CC1 (stereo unspecified) | 12.4 µM | –

Compound | AC35 [1] | activity change, negative = toxicity [2]
O=C(N/N=C/c1cc(Cl)cc([N+](=O)[O-])c1O)c1ccccc1NS(=O)(=O)c1cccs1 | – | 2.81% (inactive)
O=C1N(c2ccc(Cl)cc2)C(c2cccnc2)N2CCCN12 (stereo unspecified) | – | 17.3% (inactive)
CC(=O)Nc1cccc(NC(=O)CSc2ccc(-c3ccccn3)nn2)c1 | – | -9.54% (inactive)
CCCCCCCCCCOC(=O)Cn1c(COc2ccccc2OC)[n+](C)c2ccccc21 | 26.7 µM | –
Cc1cc(Nc2ccccc2)nn1C(=O)c1ccccc1 | – | 10% (inactive)
Cc1cc(C(=O)COC(=O)Cc2n[nH]c(=O)c3ccccc23)c(C)n1-c1cccc(C(F)(F)F)c1 | – | 24.5% (inactive)
Cc1cccc(C)c1N1C(=O)C2ON(c3ccccc3)C(c3ccncc3)C2C1=O (stereo unspecified) | – | 15.5% (inactive)
CCn1c(CNc2ccc(Cl)cc2)nnc1SCc1ccc(Cl)cc1 | – | 12.6% (inactive)
c1ccc(-c2ccc(OCCCn3cncn3)cc2)cc1 | – | 5.17% (inactive)
CCCCCCSc1ccc(-c2nc3ccccn3c2NCCCC)cc1 | – | 14% (inactive)
CC(=O)Oc1ccc(OC(C)=O)c(SCCCCCCl)c1 | 42.6 µM | –
Clc1ccc(C2=NCCN2)cc1 | – | 6.22% (inactive)
Cc1ccccc1Oc1nc(-c2ccccn2)nc2ccccc12 | – | 6.99% (inactive)
O=C(c1ccc(Cl)cc1)N1CCN(c2ccc(F)cc2)CC1 | – | 5.81% (inactive)
CN(c1ccccc1)c1nc(N2CCCC2)nc(-n2ccnc2)n1 | – | 11.2% (inactive)
CCCCCCCc1ccc(-c2ccc(O)cc2)nc1 | – | 25.5% (inactive)
O=C(COc1ccc([N+](=O)[O-])cc1)Nc1nc(-c2ccccn2)cs1 | – | -17.8% (inactive)
COC(=O)c1cccc2c1-c1ccccc1/C2=N/O | – | 28.2% (inactive)
CC(C)(C)n1nc(Cc2cccc3ccccc23)c2c(N)ncnc21 | – | 9.94% (inactive)
CCCn1nc(C(=O)N2CCN(S(=O)(=O)c3ccc(C)c(C)c3)CC2)c2ccccc2c1=O | – | 2.59% (inactive)
